Data reported in patent US20250100968A1, “BICYCLIC-HETEROCYCLE DERIVATIVES AND RELATED USES” (CENTESSA PHARMACEUTICALS (UK) LIMITED, priority 2022, published 2025).

Biological target: T1, human orexin type 2 receptor (hOX2R) (Homo sapiens, UniProt O43614)
T1 sequence (O43614 1-444): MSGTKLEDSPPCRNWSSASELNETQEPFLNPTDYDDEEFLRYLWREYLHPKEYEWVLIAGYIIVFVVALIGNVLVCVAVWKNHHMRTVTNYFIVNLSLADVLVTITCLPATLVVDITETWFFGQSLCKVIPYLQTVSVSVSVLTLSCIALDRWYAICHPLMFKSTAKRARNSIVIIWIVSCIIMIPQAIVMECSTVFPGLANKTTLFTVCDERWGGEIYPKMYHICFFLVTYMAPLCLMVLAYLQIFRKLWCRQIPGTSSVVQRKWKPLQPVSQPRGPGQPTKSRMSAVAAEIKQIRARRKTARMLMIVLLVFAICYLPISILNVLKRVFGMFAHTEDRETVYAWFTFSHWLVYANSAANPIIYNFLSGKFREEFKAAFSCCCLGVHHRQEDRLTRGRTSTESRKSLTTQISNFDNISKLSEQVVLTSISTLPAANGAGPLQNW
Test: cell-based
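Further: agonist activity in CHO cells stably expressing hOX2R, intracellular Ca2+ via Calcium 5 dye fluorescence area over 2 min, buffer-only as 0% and 10 nM orexin A as 100%.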

Method: Measurement of orexin type 2 receptor agonist activity. […] After removal of the medium, 50 μl of assay buffer 1 (0.1% bovine serum albumin (Sigma Aldrich), 20 mM HEPES (Molecular Dimensions), 250 mM probenecid (Sigma Aldrich), 1× Calcium 5 dye (Molecular Devices) in Hank's balanced salt solution (Invitrogen)) was added, and the cells were incubated for 60 min under the conditions of 37° C., 5% CO2. A test compound was dissolved in dimethyl sulfoxide (Sigma Aldrich) to 10 mM, and then diluted with assay buffer 2 (20 mM HEPES, Hank's balanced salt solution, 0.1% bovine serum albumin). For the reaction, a test compound solution (10 μl) was added using Fluorescent Imaging Plate Reader TETRA (FLIPR TETRA: manufactured by Molecular Devices), a fluorescence value (excitation wavelength 488 nm, measurement wavelength 570 nm) of each well was measured every one second for 2 min, and the agonist activity was determined using the area of the fluorescence value as an indicator of intracellular Ca^2+ concentration. The agonist activity of the test compound was calculated assuming that the fluorescence value of the well added with only the dilution buffer was 0% and the fluorescence value of the well added with 10 nM human orexin A (Tocris) buffer was 100%.

Row | SMILES | EC50 [nM]
1 | N#CC1(C(=O)N2CC3(CC3)[C@H](NS(=O)(=O)CF)[C@@H]2Cc2cccc(-c3ccccc3)c2F)COC1 [compound 34, N-((6S,7S)-5-(3-cyanooxetane-3-carbonyl)-6-((2-fluoro-[1,1′-biphenyl]-3-yl)methyl)-5-azaspiro[2.4]heptan-7-yl)-1-fluoromethanesulfonamide] | 0.0631 to 1
2 | C[C@@H](F)C(=O)N1CC2(CC2)[C@H](NS(=O)(=O)CF)[C@@H]1Cc1cc(F)cc(-c2cccc(F)c2)c1F [compound 21, 1-fluoro-N-((6S,7S)-5-((R)-2-fluoropropanoyl)-6-((2,3′,5-trifluoro-[1,1′-biphenyl]-3-yl)methyl)-5-azaspiro[2.4]heptan-7-yl)methanesulfonamide] | 0.0631 to 1
3 | C[C@H](CF)NC(=O)N1CC2(CC2)[C@H](NS(=O)(=O)C2(F)CC2)[C@@H]1Cc1cccc(-c2ccccc2)c1F [compound 86, (6S,7S)-6-((2-fluoro-[1,1′-biphenyl]-3-yl)methyl)-7-((1-fluorocyclopropane)-1-sulfonamido)-N-((R)-1-fluoropropan-2-yl)-5-azaspiro[2.4]heptane-5-carboxamide] | 0.0631 to 1
4 | N#C[C@]1(C(=O)N2CC3(CC3)[C@H](NS(=O)(=O)C(F)F)[C@@H]2Cc2cccc(-c3cc(F)cc(F)c3)c2F)CCO1 [compound 48, N-((6S,7S)-5-((S)-2-cyanooxetane-2-carbonyl)-6-((2,3′,5′-trifluoro-[1,1′-biphenyl]-3-yl)methyl)-5-azaspiro[2.4]heptan-7-yl)-1,1-difluoromethanesulfonamide] | 0.0631 to 1
5 | N#CC1(C(=O)N2CC3(CC3)[C@H](NS(=O)(=O)CF)[C@@H]2Cc2cccc(-c3ccccc3)c2F)CC1 [compound 5, N-((6S,7S)-5-(1-cyanocyclopropane-1-carbonyl)-6-((2-fluoro-[1,1′-biphenyl]-3-yl)methyl)-5-azaspiro[2.4]heptan-7-yl)-1-fluoromethanesulfonamide] | 0.0631 to 1
6 | CC[C@](C)(O)C(=O)N1CC2(CC2)[C@H](NS(=O)(=O)C(F)F)[C@@H]1Cc1cccc(-c2cc(F)cc(F)c2)c1F [compound 78, 1,1-difluoro-N-((6S,7S)-5-((S)-2-hydroxy-2-methylbutanoyl)-6-((2,3′,5′-trifluoro-[1,1′-biphenyl]-3-yl)methyl)-5-azaspiro[2.4]heptan-7-yl)methanesulfonamide] | 1 to 10
7 | N#C[C@]1(C(=O)N2CC3(CC3)[C@H](NS(=O)(=O)CF)[C@@H]2Cc2cccc(-c3ccccc3)c2F)C[C@H](F)C1 [compound 54, N-((6S,7S)-5-((1r,3S)-1-cyano-3-fluorocyclobutane-1-carbonyl)-6-((2-fluoro-[1,1′-biphenyl]-3-yl)methyl)-5-azaspiro[2.4]heptan-7-yl)-1-fluoromethanesulfonamide] | 0.0631 to 1
8 | COC[C@@H](F)C(=O)N1CC2(CC2)[C@H](NS(=O)(=O)C(F)F)[C@@H]1Cc1cccc(-c2cc(F)cc(F)c2)c1F [compound 66, 1,1-difluoro-N-((6S,7S)-5-((R)-2-fluoro-3-methoxypropanoyl)-6-((2,3′,5′-trifluoro-[1,1′-biphenyl]-3-yl)methyl)-5-azaspiro[2.4]heptan-7-yl)methanesulfonamide] | 1 to 10
9 | C[C@@H](F)C(=O)N1CC2(CC2)[C@H](NS(=O)(=O)C(F)F)[C@@H]1Cc1cccc(-c2cc(F)cc(F)c2)c1F [compound 31, 1,1-difluoro-N-((6S,7S)-5-((R)-2-fluoropropanoyl)-6-((2,3′,5′-trifluoro-[1,1′-biphenyl]-3-yl)methyl)-5-azaspiro[2.4]heptan-7-yl)methanesulfonamide] | 1 to 10
10 | O=C(N1CC2(CC2)[C@H](NS(=O)(=O)CF)[C@@H]1Cc1cccc(-c2ccccc2)c1F)C1(CF)COC1 [compound 81, 1-fluoro-N-((6S,7S)-6-((2-fluoro-[1,1′-biphenyl]-3-yl)methyl)-5-(3-(fluoromethyl)oxetane-3-carbonyl)-5-azaspiro[2.4]heptan-7-yl)methanesulfonamide] | 1 to 10
